Common to all, as to experiment: relative viability (nuclei count vs DMSO), 5 days (fraction); higher = more cells survive
Compound in the assay “QS11 + Luminespib”: C1CC2=C(C1)C=C(C=C2)OC3=NC(=C4C(=N3)N(C=N4)CC5=CC=C(C=C5)C6=CC=CC=C6)N[C@@H](CC7=CC=CC=C7)CO [QS11] + CCNC(=O)c1noc(-c2cc(C(C)C)c(O)cc2O)c1-c1ccc(CN2CCOCC2)cc1 [Luminespib] (partner 0.01 µM)
In short, it runs like this: (§1)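 Relative viability is defined as nuclei in treated wells over nuclei in vehicle wells. Duplicate plates were run and medians reported. Lung cancer cell lines in 1536-well plates were dosed by pin tool one day after seeding, with one drug or with a fixed anchor-drug dose plus five library-drug doses (not always all listed) in √10 steps, and nuclei were counted after 5 days.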

Compound in the assay “AZ628 + Tozasertib”: CC1=C(C=C(C=C1)NC(=O)C2=CC(=CC=C2)C(C)(C)C#N)NC3=CC4=C(C=C3)N=CN(C4=O)C [AZ628] + Cc1cc(Nc2cc(N3CCN(C)CC3)nc(Sc3ccc(NC(=O)C4CC4)cc3)n2)n[nH]1 [Tozasertib] (partner 0.1 µM)
Summed up: as §1

Compound in the assay “AZ628 + Phenformin”: CC1=C(C=C(C=C1)NC(=O)C2=CC(=CC=C2)C(C)(C)C#N)NC3=CC4=C(C=C3)N=CN(C4=O)C [AZ628] + N=C(N)NC(=N)NCCc1ccccc1 [Phenformin] (partner 250 µM)
Summed up:
as §1

Compound in the assay “AZ628 + AZD7762”: CC1=C(C=C(C=C1)NC(=O)C2=CC(=CC=C2)C(C)(C)C#N)NC3=CC4=C(C=C3)N=CN(C4=O)C [AZ628] + NC(=O)Nc1cc(-c2cccc(F)c2)sc1C(=O)N[C@H]1CCCNC1 [AZD7762] (partner 0.2 µM)
In short, it runs like this:
as §1

On to 201T, for which the relative viability with QS11 + Luminespib (first compound 0.08 µM) was found to be 1.08; with QS11 + Luminespib (first compound 0.253 µM) it was 1.12; with QS11 + Luminespib (first compound 0.8 µM) it was 0.815; with QS11 + Luminespib (first compound 2.53 µM) it was 1.01; in the assay with QS11 + Luminespib (first compound 8 µM) it was 0.692; with AZ628 + Tozasertib (first compound 0.08 µM), 0.939. Moreover, the relative viability with AZ628 + Tozasertib (first compound 0.253 µM) amounted to 0.861; with AZ628 + Tozasertib (first compound 0.8 µM), 1.04; with AZ628 + Tozasertib (first compound 2.53 µM), 0.899; in the assay with AZ628 + Tozasertib (first compound 8 µM), 0.89; in the assay with AZ628 + Phenformin (first compound 0.08 µM) it was 0.507; with AZ628 + Phenformin (first compound 0.253 µM), 0.455. The relative viability came out at 0.245 with AZ628 + Phenformin (first compound 0.8 µM); 0.438 with AZ628 + Phenformin (first compound 2.53 µM); 0.445 with AZ628 + Phenformin (first compound 8 µM); 0.523 in the assay with AZ628 + AZD7762 (first compound 0.08 µM); 0.541 with AZ628 + AZD7762 (first compound 0.253 µM); 0.57 with AZ628 + AZD7762 (first compound 0.8 µM). Also, the relative viability was determined as 0.462 with AZ628 + AZD7762 (first compound 2.53 µM) and 0.45 in the assay with AZ628 + AZD7762 (first compound 8 µM).
Regarding A549, the relative viability came to 0.19 in the assay with AZ628 + Phenformin (first compound 0.08 µM); 0.161 in the assay with AZ628 + Phenformin (first compound 0.253 µM); 0.136 with AZ628 + Phenformin (first compound 0.8 µM); 0.135 with AZ628 + Phenformin (first compound 2.53 µM); 0.141 with AZ628 + Phenformin (first compound 8 µM).
Turning to A-427, the relative viability stood at 0.918 with QS11 + Luminespib (first compound 0.08 µM); 0.885 in the assay with QS11 + Luminespib (first compound 0.253 µM); 1.02 in the assay with QS11 + Luminespib (first compound 2.53 µM); 1.05 with QS11 + Luminespib (first compound 8 µM); 0.155 with AZ628 + Tozasertib (first compound 0.08 µM); 0.138 with AZ628 + Tozasertib (first compound 0.253 µM). Moreover, the relative viability with AZ628 + Tozasertib (first compound 0.8 µM) amounted to 0.146; in the assay with AZ628 + Tozasertib (first compound 2.53 µM), 0.142; with AZ628 + Tozasertib (first compound 8 µM) it was 0.146; with AZ628 + Phenformin (first compound 0.08 µM), 0.207; with AZ628 + Phenformin (first compound 0.253 µM), 0.242; in the assay with AZ628 + Phenformin (first compound 0.8 µM), 0.25. For the same cell line, the relative viability with AZ628 + Phenformin (first compound 2.53 µM) was 0.245; in the assay with AZ628 + Phenformin (first compound 8 µM), 0.181; with AZ628 + AZD7762 (first compound 0.08 µM), 0.591; in the assay with AZ628 + AZD7762 (first compound 0.253 µM), 0.569; with AZ628 + AZD7762 (first compound 0.8 µM) it was 0.6; with AZ628 + AZD7762 (first compound 2.53 µM), 0.524. Further, the relative viability with AZ628 + AZD7762 (first compound 8 µM) was 0.352.
As for ABC-1, the relative viability came out at 0.656 in the assay with QS11 + Luminespib (first compound 0.08 µM); 0.861 with QS11 + Luminespib (first compound 0.253 µM); 0.828 with QS11 + Luminespib (first compound 2.53 µM); 0.842 with QS11 + Luminespib (first compound 8 µM); 0.226 with AZ628 + Tozasertib (first compound 0.08 µM); 0.166 with AZ628 + Tozasertib (first compound 0.253 µM). Also, the relative viability with AZ628 + Tozasertib (first compound 0.8 µM) came to 0.215; with AZ628 + Tozasertib (first compound 2.53 µM) it was 0.201; with AZ628 + Tozasertib (first compound 8 µM), 0.175; with AZ628 + Phenformin (first compound 0.08 µM) it was 0.274; with AZ628 + Phenformin (first compound 0.253 µM) it was 0.188; with AZ628 + Phenformin (first compound 0.8 µM), 0.205. For the same cell line, the relative viability in the assay with AZ628 + Phenformin (first compound 2.53 µM) came to 0.211; with AZ628 + Phenformin (first compound 8 µM) it was 0.235; with AZ628 + AZD7762 (first compound 0.08 µM) it was 0.761; with AZ628 + AZD7762 (first compound 0.253 µM), 0.786; in the assay with AZ628 + AZD7762 (first compound 0.8 µM), 0.768; with AZ628 + AZD7762 (first compound 2.53 µM) it was 0.865. Besides, in the assay with AZ628 + AZD7762 (first compound 8 µM), the relative viability turned out to be 0.745.
In the case of BEN, the relative viability with QS11 + Luminespib (first compound 0.08 µM) is 0.241; with QS11 + Luminespib (first compound 0.253 µM), 0.567; with QS11 + Luminespib (first compound 0.8 µM), 0.366; with QS11 + Luminespib (first compound 2.53 µM), 0.507; with QS11 + Luminespib (first compound 8 µM) it was 0.31; with AZ628 + Tozasertib (first compound 0.08 µM) it was 0.511. The relative viability with AZ628 + Tozasertib (first compound 0.253 µM) was found to be 0.498; with AZ628 + Tozasertib (first compound 0.8 µM), 0.444; with AZ628 + Tozasertib (first compound 2.53 µM), 0.471; in the assay with AZ628 + Tozasertib (first compound 8 µM) it was 0.383; in the assay with AZ628 + Phenformin (first compound 0.08 µM) it was 0.265; with AZ628 + Phenformin (first compound 0.253 µM), 0.331. Besides, the relative viability stood at 0.268 with AZ628 + Phenformin (first compound 0.8 µM); 0.27 with AZ628 + Phenformin (first compound 2.53 µM); 0.231 in the assay with AZ628 + Phenformin (first compound 8 µM); 0.678 with AZ628 + AZD7762 (first compound 0.08 µM); 0.593 with AZ628 + AZD7762 (first compound 0.253 µM); 0.653 with AZ628 + AZD7762 (first compound 0.8 µM). Besides, the relative viability came to 0.614 with AZ628 + AZD7762 (first compound 2.53 µM) and 0.587 in the assay with AZ628 + AZD7762 (first compound 8 µM).
On to CAL-12T, for which the relative viability with QS11 + Luminespib (first compound 0.08 µM) came to 0.608; in the assay with QS11 + Luminespib (first compound 0.253 µM), 0.578; in the assay with QS11 + Luminespib (first compound 0.8 µM), 0.478; with QS11 + Luminespib (first compound 2.53 µM), 0.362; with QS11 + Luminespib (first compound 8 µM), 0.551; in the assay with AZ628 + Tozasertib (first compound 0.08 µM), 0.343. In addition, the relative viability in the assay with AZ628 + Tozasertib (first compound 0.253 µM) was 0.366; with AZ628 + Tozasertib (first compound 0.8 µM), 0.288; in the assay with AZ628 + Tozasertib (first compound 2.53 µM), 0.292; with AZ628 + Tozasertib (first compound 8 µM) it was 0.182; in the assay with AZ628 + Phenformin (first compound 0.08 µM), 0.553; with AZ628 + Phenformin (first compound 0.253 µM), 0.492. Besides, the relative viability worked out at 0.335 in the assay with AZ628 + Phenformin (first compound 0.8 µM); 0.414 in the assay with AZ628 + Phenformin (first compound 2.53 µM); 0.336 with AZ628 + Phenformin (first compound 8 µM); 0.806 with AZ628 + AZD7762 (first compound 0.08 µM); 0.622 with AZ628 + AZD7762 (first compound 0.253 µM); 0.561 in the assay with AZ628 + AZD7762 (first compound 0.8 µM). Besides, the relative viability was 0.656 in the assay with AZ628 + AZD7762 (first compound 2.53 µM) and 0.501 with AZ628 + AZD7762 (first compound 8 µM).
Take COR-L23: the relative viability in the assay with QS11 + Luminespib (first compound 0.08 µM) was found to be 0.718; with QS11 + Luminespib (first compound 0.253 µM) it was 0.683; in the assay with QS11 + Luminespib (first compound 0.8 µM), 0.673; with QS11 + Luminespib (first compound 2.53 µM) it was 0.552; with QS11 + Luminespib (first compound 8 µM), 0.576; in the assay with AZ628 + Tozasertib (first compound 0.08 µM) it was 0.186. Further, the relative viability with AZ628 + Tozasertib (first compound 0.253 µM) turned out to be 0.15; with AZ628 + Tozasertib (first compound 0.8 µM), 0.157; with AZ628 + Tozasertib (first compound 2.53 µM), 0.146; in the assay with AZ628 + Tozasertib (first compound 8 µM), 0.12; with AZ628 + Phenformin (first compound 0.08 µM) it was 0.54; in the assay with AZ628 + Phenformin (first compound 0.253 µM), 0.476. The results for the relative viability with AZ628 + Phenformin (first compound 0.8 µM), with AZ628 + Phenformin (first compound 2.53 µM) and with AZ628 + Phenformin (first compound 8 µM) were 0.433, 0.445 and 0.333, respectively.
Regarding COR-L 105, the relative viability was 0.838 in the assay with QS11 + Luminespib (first compound 0.08 µM); 0.7 in the assay with QS11 + Luminespib (first compound 0.253 µM); 0.649 with QS11 + Luminespib (first compound 0.8 µM); 0.776 with QS11 + Luminespib (first compound 2.53 µM); 0.664 with QS11 + Luminespib (first compound 8 µM); 0.387 with AZ628 + Tozasertib (first compound 0.08 µM). Moreover, the relative viability with AZ628 + Tozasertib (first compound 0.253 µM) worked out at 0.374; with AZ628 + Tozasertib (first compound 0.8 µM), 0.359; with AZ628 + Tozasertib (first compound 2.53 µM), 0.315; with AZ628 + Tozasertib (first compound 8 µM), 0.376; with AZ628 + Phenformin (first compound 0.08 µM), 0.541; in the assay with AZ628 + Phenformin (first compound 0.253 µM) it was 0.483. In addition, the results for the relative viability with AZ628 + Phenformin (first compound 0.8 µM), in the assay with AZ628 + Phenformin (first compound 2.53 µM) and in the assay with AZ628 + Phenformin (first compound 8 µM) were 0.4, 0.488 and 0.323, respectively.

For the origin of these results see the supplement of paper PMC10307832.
